Measured values taken from PMC3634089 (The Korean Journal of Physiology & Pharmacology : …, 2013).

Biological target: GABAC receptor ρ1 subunit (Homo sapiens, UniProt P24046)
Assay: two-electrode voltage clamp in Xenopus oocytes expressing human ρ[…]
Type: cell-based

Sequence of GABAC receptor ρ1 subunit (P24046 22-479): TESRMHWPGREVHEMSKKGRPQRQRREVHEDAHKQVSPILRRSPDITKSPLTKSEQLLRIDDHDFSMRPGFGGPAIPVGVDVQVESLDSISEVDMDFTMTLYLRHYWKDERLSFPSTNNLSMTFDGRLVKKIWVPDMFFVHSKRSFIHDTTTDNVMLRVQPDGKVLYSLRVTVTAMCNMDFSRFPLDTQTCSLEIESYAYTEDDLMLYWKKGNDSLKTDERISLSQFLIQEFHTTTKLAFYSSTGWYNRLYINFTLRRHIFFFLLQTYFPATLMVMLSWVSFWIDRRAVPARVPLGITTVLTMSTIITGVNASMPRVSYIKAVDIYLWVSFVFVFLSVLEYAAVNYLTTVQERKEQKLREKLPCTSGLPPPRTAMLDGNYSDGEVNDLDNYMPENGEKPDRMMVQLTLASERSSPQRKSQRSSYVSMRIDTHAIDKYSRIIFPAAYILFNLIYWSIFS

CC(C)=CCC[C@](C)(O)[C@H]1CC[C@]2(C)[C@@H]1[C@H](O)C[C@@H]1[C@@]3(C)CC[C@H](O)C(C)(C)[C@@H]3[C@@H](O)C[C@]12C [M4, protopanaxatriol]
IC50: 45.7 ± 3.9 µM
